In the supplement of paper PMC4862054:

What was measured:
Conditions in all cases: incubation time: 72 h
[1] = tested on: SK-BR-3; assay: drug sensitivity score (DSS), CellTiter-Glo (DSS (AUC-based score)); higher = stronger drug effect (viability inhibition or cytotoxicity); extreme values may be limits of the assay
Summary of the method: (§1)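 Breast cancer cell lines, seeded as 20 µl suspension, were incubated 72 h with compound in 384-well plates at 5 concentrations in 10-fold steps over a 10,000-fold range set for each compound. Fluorescence from CellTox Green was read at 485/520 nm before CellTiter-Glo luminescence, which was read after 10 min at room temperature. Every plate was normalised to 0.1 % DMSO and a positive kill control, and the drug sensitivity score was taken from the area under the fitted dose-response curve.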

[2] = tested on: HCC1599; assay: as above
Summary of the method: as §1

[3] = tested on: MDA-MB-436; assay: as above
Summary of the method: as §1

[4] = tested on: CAL-148; assay: as above
Summary of the method: as §1

[5] = tested on: MCF-10A; assay: as above
Summary of the method: as §1

[6] = tested on: MDA-MB-468; assay: as above
Summary of the method: as §1

[7] = tested on: HCC1143; assay: as above
Summary of the method: as §1

[8] = tested on: CAL-120; assay: normalised viability (% of control), CellTiter-Blue; higher = more viable cells (about 100 = DMSO control)
Protocol: (§2)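 DSRT, CellTiter-Blue viability, 72 h incubation. Signal is normalised to DMSO and benzethonium chloride controls. Value is the normalised response at dose 3.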

[9] = tested on: DU-4475; assay: as above
Protocol: as §2

[10] = tested on: BT-474; assay: as above
Protocol: as §2

[11] = tested on: SK-BR-3; assay: as above
Protocol: as §2

[12] = tested on: MFM-223; assay: as above
Protocol: as §2

[13] = tested on: HDQ-P1; assay: as above
Protocol: as §2

[14] = tested on: HCC1599; assay: as above
Protocol: as §2

[15] = tested on: MDA-MB-436; assay: as above
Protocol: as §2

[16] = tested on: Hs578T; assay: as above
Protocol: as §2

[17] = tested on: CAL-148; assay: as above
Protocol: as §2

[18] = tested on: BT-549; assay: as above
Protocol: as §2

[19] = tested on: HCC1937; assay: as above
Protocol: as §2

[20] = tested on: MDA-MB-231; assay: as above
Protocol: as §2

[21] = tested on: CAL-85-1; assay: as above
Protocol: as §2

[22] = tested on: MDA-MB-453; assay: as above
Protocol: as §2

[23] = tested on: CAL-51; assay: as above
Protocol: as §2

[24] = tested on: MDA-MB-468; assay: as above
Protocol: as §2

[25] = tested on: HCC1143; assay: as above
Protocol: as §2

[26] = tested on: DU-4475; assay: normalised viability (% of control), CellTiter-Blue; higher = more viable cells (about 100 = DMSO control); remark: listed apart in the source
Summary of the method: (§3)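 Compound dissolved in 5 µl medium was pre-loaded into 384-well plates, and breast cancer cell lines in 20 µl suspension were seeded on top and incubated 72 h. After adding 2.5 µl CellTiter-Blue reagent for 2 h at 37 °C, fluorescence was read at 560/590 nm. Plates were normalised to vehicle (100) and a positive kill control (0), with Z'-factor quality control. Each value is normalised viability at a single listed concentration from the series.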

[27] = tested on: CAL-148; assay: as above; remark: listed apart in the source
Summary of the method: as §3

[28] = tested on: CAL-85-1; assay: as above; remark: listed apart in the source
Summary of the method: as §3

[29] = tested on: CAL-51; assay: as above; remark: listed apart in the source
Summary of the method: as §3

With `CC[C@H](C)C(=O)O[C@H]1C[C@H](O)C=C2C=C[C@H](C)[C@H](CC[C@@H](O)C[C@@H](O)CC(=O)O)[C@H]21` [Pravastatin] the drug sensitivity score [1] was 4.87, the drug sensitivity score [2] was 6.85 and the drug sensitivity score [3] was 26.2. For the same compound, the drug sensitivity score [4] was 3.75, the drug sensitivity score [5] was 0 and the drug sensitivity score [6] was 3.34. It also gave a drug sensitivity score [7] of 2.94.
In the case of `CC[C@H](Nc1ncnc2[nH]cnc12)c1nc2cccc(F)c2c(=O)n1-c1ccccc1` [GS-1101], the drug sensitivity score [1] is reported as 0, the drug sensitivity score [2] is reported as 0 and the drug sensitivity score [3] is reported as 3.18. The drug sensitivity score [4] was 0, the drug sensitivity score [5] was 0 and the drug sensitivity score [6] was 2.6. The drug sensitivity score [7] was 0.
Compound `C1CN1c1nc(N2CC2)nc(N2CC2)n1` [Triethylenemelamine] has a normalised viability ([8]; 100 nM) of 109%, a normalised viability ([9]; 10 nM) of 102% and a normalised viability ([10]; 100 nM) of 113%. For the same compound, the normalised viability ([11]; 100 nM) was 95.5%, the normalised viability ([12]; 100 nM) was 93.8% and the normalised viability ([13]; 10 nM) was 102%. For the same compound, the normalised viability ([14]; 100 nM) was 106%, the normalised viability ([15]; 100 nM) was 105% and the normalised viability ([16]; 100 nM) was 107%. For the same compound, the normalised viability ([17]; 10 nM) was 103%, the normalised viability ([18]; 100 nM) was 95.7% and the normalised viability ([19]; 100 nM) was 88.5%. The normalised viability ([20]; 100 nM) was 115%, the normalised viability ([21]; 10 nM) was 101% and the normalised viability ([22]; 10 nM) was 96.6%. The normalised viability ([23]; 10 nM) was 100%, the normalised viability ([24]; 100 nM) was 101% and the normalised viability ([25]; 100 nM) was 105%. For the same compound, the normalised viability ([26]; 300 nM) was 97.2%, the normalised viability ([27]; 300 nM) was 118% and the normalised viability ([28]; 300 nM) was 99%. It also gave a normalised viability ([29]; 300 nM) of 105%.
`CC[C@H](Nc1ncnc2[nH]cnc12)c1nc2cccc(F)c2c(=O)n1-c1ccccc1` [CAL-101] was tested, and the normalised viability ([8]; 100 nM) was 97.2%, the normalised viability ([9]; 10 nM) was 98.6% and the normalised viability ([10]; 100 nM) was 112%. For the same compound, the normalised viability ([11]; 100 nM) was 76.3%, the normalised viability ([12]; 100 nM) was 88.3% and the normalised viability ([13]; 10 nM) was 112%. It also gave a normalised viability ([14]; 100 nM) of 73.6%, a normalised viability ([15]; 100 nM) of 104% and a normalised viability ([16]; 100 nM) of 89.6%. It also gave a normalised viability ([17]; 10 nM) of 96.2%, a normalised viability ([18]; 100 nM) of 102% and a normalised viability ([19]; 100 nM) of 97.1%. For the same compound, the normalised viability ([20]; 100 nM) was 80.9%, the normalised viability ([21]; 10 nM) was 87.5% and the normalised viability ([22]; 10 nM) was 97.4%. The normalised viability ([23]; 10 nM) was 84.7%, the normalised viability ([24]; 100 nM) was 115% and the normalised viability ([25]; 100 nM) was 102%. The normalised viability ([26]; 300 nM) was 91.1%, the normalised viability ([27]; 300 nM) was 90.4% and the normalised viability ([28]; 300 nM) was 81.9%. For the same compound, the normalised viability ([29]; 300 nM) was 85.3%.
Compound `CC(=O)Nc1cccc(-n2c(=O)n(C3CC3)c(=O)c3c(Nc4ccc(I)cc4F)n(C)c(=O)c(C)c32)c1` has a normalised viability ([8]; 2.5 nM) of 99.4%, a normalised viability ([9]; 0.25 nM) of 101% and a normalised viability ([10]; 2.5 nM) of 119%. For the same compound, the normalised viability ([11]; 2.5 nM) was 92.7%, the normalised viability ([12]; 2.5 nM) was 90.6% and the normalised viability ([13]; 0.25 nM) was 103%. For the same compound, the normalised viability ([14]; 2.5 nM) was 84.6%, the normalised viability ([15]; 2.5 nM) was 92.8% and the normalised viability ([16]; 2.5 nM) was 94.9%. It also gave a normalised viability ([17]; 0.25 nM) of 107%, a normalised viability ([18]; 2.5 nM) of 104% and a normalised viability ([19]; 2.5 nM) of 102%. For the same compound, the normalised viability ([20]; 2.5 nM) was 57.7%, the normalised viability ([21]; 0.25 nM) was 97.3% and the normalised viability ([22]; 0.25 nM) was 106%. The normalised viability ([23]; 0.25 nM) was 90.4%, the normalised viability ([24]; 2.5 nM) was 105% and the normalised viability ([25]; 2.5 nM) was 86.7%. It also gave a normalised viability ([26]; 7.5 nM) of 0.58%, a normalised viability ([27]; 7.5 nM) of 90.7% and a normalised viability ([28]; 7.5 nM) of 76.2%. The normalised viability ([29]; 7.5 nM) was 81.6%.
